Experimental data as given in US20130287807A1, “COMPOUNDS FOR TREATING SYMPTOMS ASSOCIATED WITH PARKINSON'S DISEASE” (priority 2008, published 2013).

Assays:
[1] = system: monoclonal antibody MV-001; test: In vitro binding assay (ELISA), BSA-coupled peptides, parental antibody MV-001; design: species or system C57/B16 mice; conditions: Table 1C; peptide-BSA on plate, compared to original epitope
Procedure: (§1) Peptides derived from Phage Display as well as variants thereof were coupled to BSA and bound to ELISA plates (1 μM; as indicated in the respective figures) and subsequently incubated with the monoclonal antibody that was used for the screening procedure to analyse binding capacity of identified peptides.
Legend to Table 1C: the binding capacity is coded by the following binding code: 1:X describes the dilution factor of the parental AB

[2] = system: Aβ/truncated/modified forms; test: In vivo characterisation of mimotopes: detection of Aβ/truncated/modified forms; design: species or system C57/B16 mice; key: +: All peptides listed in Table 4 mount specific immune reactions against full length and/or truncated and modified forms of Aβ or fragments thereof; conditions: Table 4, MV-001 derived mimotopes
Procedure: (§2) Inhibiting as well as non-inhibiting peptides were coupled to KLH and injected into mice (wildtype C57/B16 mice; subcutaneous injection into the flank) together with an appropriate adjuvant (aluminium hydroxide). Animals were vaccinated 3-6 times in biweekly intervals and sera were taken biweekly as well. Titers to injected peptides, as well as to an irrelevant peptide were determined with every serum. Furthermore, titers against the recombinant human Aβ protein, and against original peptides were determined respectively. In general sera were analysed by reaction against peptides coupled to Bovine Serum Albumin (BSA) and recombinant full length proteins which were immobilised on ELISA plates. Titers were determined using anti mouse IgG specific antibodies. For detailed results see FIGS. 15, 16 and 17 respectively and FIGS. 23, 24 and 25 respectively.
(§3) Female C57/b16 mice, 5-6 mice per group, were subcutaneously immunized with 30 μg peptide coupled to KLH. Control groups were administered original epitope-KLH conjugates respectively. As adjuvant alum was used (always 1 mg per mouse). […] The in vitro ELISA assay to determine the antibody titer was performed with sera of single mice after each vaccination in a two week interval (see FIGS. 15 and 16 respectively). The wells of the ELISA plate were coated with mimotope-BSA conjugate and an irrelevant peptide-BSA conjugate (negative control). The positive control was performed by reaction of the parental antibody with the respective mimotope-BSA conjugate. The detection was performed with anti-mouse IgG. Additionally, recombinant proteins were immobilised on ELISA plates and sera reacted accordingly. FIGS. 15 to 17 show representative examples for assays used to characterise mimotopes in vivo.
as §3, with “FIGS. 25” for “FIGS. 15”, “and 26” for “and 16”, “respectively). Titers were calculated as OD max/2 in all figures shown.” for “respectively).”, “FIGS. 23, 24 and 25” for “FIGS. 15 to 17”

[3] = system: monoclonal antibody MV-001; test: In vitro inhibition assay (ELISA), MV-001 binding to original epitope; design: species or system C57/B16 mice; conditions: Table 2C; OD at 10 ug peptide compared to original peptide
Procedure: (§4) Different amounts of peptides (concentrations ranging from 10 μg to 0.08 μg; serial dilutions; for MV-002: concentrations ranging from 5 μg to 0.03 μg; serial dilutions), derived from Phage Display were incubated with the monoclonal antibody that was used for the screening procedure. Peptides diminishing subsequent binding of the antibody to the original epitope coated on ELISA plates were considered as inhibiting in this assay.
(§5) Legend to Table 2C: the inhibition capacity is coded by the following code: Weak inhibition means more peptide is required to lower AB binding than with the original epitope; strong inhibition means similar peptide amounts are required for mimotope and original epitope for lowering AB binding. Mimotopes are compared to the original peptide as standard. OD at 10 ug peptide used in the assay is used to calculate the competition capacity compared to original peptide.

[4] = system: Aβ/truncated/modified forms; test: In vivo characterisation of mimotopes: detection of Aβ/truncated/modified forms; design: species or system C57/B16 mice; key: +: All peptides listed in table 4 mount specific immune reactions against full length and/or truncated and modified forms of Aβ or fragments thereof; conditions: Table 4, MV-002 derived mimotopes
Procedure: as §2, §3
as §3, with “FIGS. 25” for “FIGS. 15”, “and 26” for “and 16”, “respectively). Titers were calculated as OD max/2 in all figures shown.” for “respectively).”, “FIGS. 23, 24 and 25” for “FIGS. 15 to 17”

[5] = system: monoclonal antibody MV-002; test: In vitro binding assay (ELISA), BSA-coupled peptides, parental antibody MV-002; design: species or system C57/B16 mice; conditions: Table 1 (MV-002); peptide-BSA on plate, compared to original epitope
Procedure: as §1
Legend to Table 1: the binding capacity is coded by the following binding code: 1:X describes the dilution factor of the parental AB. Ac- . . . indicates acetylated AA.

[6] = system: monoclonal antibody MV-002; test: In vitro inhibition assay (ELISA), MV-002 binding to original epitope; design: species or system C57/B16 mice; conditions: Table 2 (MV-002); OD at 5 ug peptide compared to original peptide
Procedure: as §4
as §5, with “2:” for “2C:”, “5” for “10”

[7] = biological target: monoclonal antibody MV-002; test: ELISA on peptide-BSA; code 1 = weak binding, OD halfmax 1:<40000

Molecule | Binding Capacity [1] | Detection of Aβ/truncated/modified forms [2] | Inhibition Capacity [3] | OD halfmax dilution factor of the parental antibody (1:X) (dilutionfactor(1:x)) [7] | further results
QSEFKHWC [p4738] | 3 (strong binding :>20000) | + | 1 (Weaker than original epitope (OD of 10 ug peptide below 3 times of original peptide)) |  | 
SGQLKFPC [p4413] |  |  |  |  | Detection of Aβ/truncated/modified forms [4]: +; Binding Capacity [5]: 1 (weak binding :<40000)
SGQIWFRC [p4414] |  |  |  |  | Detection of Aβ/truncated/modified forms [4]: +; Binding Capacity [5]: 1 (weak binding :<40000)
TSVFRHC [p4383] | 3 (strong binding :>20000) | + | 1 (Weaker than original epitope (OD of 10 ug peptide below 3 times of original peptide)) |  | 
SGEYVFHC [p4404] |  |  |  |  | Detection of Aβ/truncated/modified forms [4]: +; Binding Capacity [5]: 1 (weak binding :<40000)
SGEIHFNC [p4415] |  |  |  |  | Detection of Aβ/truncated/modified forms [4]: +; Binding Capacity [5]: 1 (weak binding :<40000)
GELWFPC [p4673] |  |  |  |  | Detection of Aβ/truncated/modified forms [4]: +; Binding Capacity [5]: 3 (strong binding :>320000); Inhibition Capacity [6]: 1 (Weaker than original epitope (OD of peptide below 4, 6 times of original peptide))
ILFRHGC [p4390] | 3 (strong binding :>20000) | + | 1 (Weaker than original epitope (OD of 10 ug peptide below 3 times of original peptide)) |  | 
SQFRHYC [p4385] | 2 (medium binding :4000-20000) | + | 1 (Weaker than original epitope (OD of 10 ug peptide below 3 times of original peptide)) |  | 
TEFRHKAC [p4753] | 3 (strong binding :>20000) | + | 2 (strong inhibition (as original epitope; OD of 10 ug peptide below 2 times of original peptide)) |  | 
SPNQFRHC [p4707] | 3 (strong binding :>20000) | + | 1 (Weaker than original epitope (OD of 10 ug peptide below 3 times of original peptide)) |  | 
SEFKHGC [p4381] | 3 (strong binding :>20000) | + | 1 (Weaker than original epitope (OD of 10 ug peptide below 3 times of original peptide)) |  | 
THQRLWFC [p4693] |  |  |  |  | Detection of Aβ/truncated/modified forms [4]: +; Binding Capacity [5]: 3 (strong binding :>320000)
GEIKFDHC [p4698] |  |  |  |  | Detection of Aβ/truncated/modified forms [4]: +; Binding Capacity [5]: 3 (strong binding :>320000); Inhibition Capacity [6]: 2 (strong inhibition (as original epitope; OD of peptide below 2, 3 times of original peptide))
GEIRFGSC [p4696] |  |  |  |  | Detection of Aβ/truncated/modified forms [4]: +; Binding Capacity [5]: 3 (strong binding :>320000)
ADHDFRHC [p4740] | 3 (strong binding :>20000) | + | 1 (Weaker than original epitope (OD of 10 ug peptide below 3 times of original peptide)) |  | 
THTDFRHC [p4725] | 3 (strong binding :>20000) | + | 1 (Weaker than original epitope (OD of 10 ug peptide below 3 times of original peptide)) |  | 
ELFKHHLC [p4714] | 3 (strong binding :>20000) | + |  |  | 

Molecule | Binding Capacity [1] | Detection of Aβ/truncated/modified forms [2] | Inhibition Capacity [3] | OD halfmax dilution factor of the parental antibody (1:X) (dilutionfactor(1:x)) [7] | further results
GEIQFGAC [p4699] |  |  |  |  | Detection of Aβ/truncated/modified forms [4]: +; Binding Capacity [5]: 3 (strong binding :>320000); Inhibition Capacity [6]: 1 (Weaker than original epitope (OD of peptide below 4, 6 times of original peptide))
LMFRHNC [p4386] | 3 (strong binding :>20000) | + | 1 (Weaker than original epitope (OD of 10 ug peptide below 3 times of original peptide)) |  | 
YEFRHAQC [p4748] | 3 (strong binding :>20000) | + |  |  | 
TLHEFRHC [p4715] | 3 (strong binding :>20000) | + | 2 (strong inhibition (as original epitope; OD of 10 ug peptide below 2 times of original peptide)) |  | 
DEHPFRHC [p4730] | 3 (strong binding :>20000) | + | 1 (Weaker than original epitope (OD of 10 ug peptide below 3 times of original peptide)) |  | 
SGEIYFERC [p4805] |  |  |  | < 40000 | 
AGEIYFERC [p4806] |  |  |  | < 40000 | 
SGQLKFPC [p4413] |  |  |  | < 40000 | 
SGEIHFNC [p4415] |  |  |  | < 40000 | 
GQIWFISC [p4666] |  |  |  | < 40000 | 
CGEIYFER [p4807] |  |  |  | < 40000 | 
KLPLFVMC [p4691] |  |  |  | < 40000 | 
AIPLFVMC [p4682] |  |  |  | < 40000 | 
SGEYVFHC [p4404] |  |  |  | < 40000 | 
SHTRLYFC [p4403] |  |  |  | < 40000 | 
QLPLFVLC [p4700] |  |  |  | < 40000 | 
GTIFFRDC [p4692] |  |  |  | < 40000 | 
SGQIWFRC [p4414] |  |  |  | < 40000 | 
